Where a name gives a salt, the structure may show the parent alone.
What was measured:
[1] = tested on: Picryl Chloride induced contact dermatitis; assay: Picryl Chloride induced contact dermatitis; assay type: in vivo, mouse (ddY strain); conditions: Mus musculus, po; for inhibition in vivo at 100 mg/kg: orally, ear swelling 24 hours after second challenge
Experimental: (3) Picryl Chloride induced contact dermatitis
At first 0.1 ml of 7% picryl chloride-ethanol solution was applied to skin of the depilated abdomens (area 2.5×15 mm) of ddY-strain male mice (body weight 20-22 g). After one week each 0.02 ml of 1% picryl chloride-olive oil solution was applied topically to the ears of the mouse. […] After three days 0.1 ml of 7% picryl chloride-ethanol solution was applied again to the depilated abdomens of the mice. After one week, each 0.02 ml of 1% picryl chloride-olive oil solution per ear were applied topically to the bilateral ears, and at same time, the test compounds were administered orally. Immediately before and 24 hours after the second challenge, the thickness of the ears was measured and the swelling was calculated. The percent inhibitions were calculated by the ratio of the each swelling to the control.

[2] = tested on: passive cutaneous anaphylaxis in rat; assay: Homologeous passive cutaneous anaphylaxis in rat; assay type: in vivo, rat (Wistar strain); conditions: orally, exuded pigment vs control
Experimental: (2) Homologeous passive cutaneous anaphylaxis in rat Each test compound suspended in 0.5% tragacanth gum-distilled water was administered orally to a group of five male Wistar strain rats (body weight 150-200 g). After one hour 0.1 ml of 5% anti-Dinitrophinol conpled Ascaris rat IgE serum-physiological sodium chloride solution was injected intradermally to dorsum of the rat. […] The animals were sacrificed by decapitation 30 minutes after the injection. Thereafter the skin of the animals were removed and the amount of the pigment exuded into the inflamed skin was determined. The percent inhibitions were calculated by the ratio of the amounts of exuded pigments to the control.

[3] = tested on: lung fragment of guinea pig; assay: Mediator (histamine) release on lung fragment of guinea pig; assay type: cell-based, guinea pig (Hartley strain); conditions: 10^-4 g/ml
Experimental: (4) Mediator release on lung fragment of guinea pig.
A group of Hartley strain male guinea pigs (body weight 250-300 g) were administered intraperitoneally anti-BPO-BGG IgE serum. The animals were sacrificed by decapitation, and those sensitized lungs were isolated for use. […] Following 10 minute incubation, the amount of the released histamine were determined by bioassay.

[4] = Acute toxicity (rat); conditions: in vivo, po
Experimental: Each test compound suspended in 0.5% tragacanth gum-saline was administered orally, subcutaneously or intraperitoneally to animals ddY strain mouse and Wistar strain rats. The 50% lethal dose and the 95% confidence limit were calculated by Litchfield-Wilcoxon's method from the death of animals in 3 weeks following administration.

[5] = Emulsification test; assay type: physicochemical; conditions: 10 ml of 0.25% solution of the salt + 10 ml toluene, 40° C., 15 minutes standing
Experimental: (§1) (6) Emulsification test and determination of surface tention
They were emulsified in the test tube by turning it upside down repeatedly for 30 times at 40° C. and were allowed to stand for 15 minutes. After the standing the separated volume of aqueous layer was measured.

[6] = Determination of surface tension; assay type: physicochemical; conditions: 0.25% solution of the salt, Ring method, 25° C.
Experimental: as §1
As the structure of the compounds of the present invention is comparatively, similar to Amisoft, HS-11, a sort of Amisoft, which is mixture of 70% of N-stearoyl-L-glutamic acid monosodium salt and 30% of N-palmitoyl-L-glutamic acid monosodium salt was selected for the tests. The surface activity and the surface tension of the said HS-11 and the compounds of the present invention were measured and determined respectively, and those comparative results were shown in Table VII.
(2) Determination of surface tension
The 0.25% solution of the salt of each compound was determined by Ring method at 25° C.

[7] = tested on: rat adjuvant polyarthritis; assay: Effect on rat adjuvant polyarthritis; assay type: in vivo, rat (Sprague Dawley strain); conditions: oral daily: Compound No. 1 200 mg/kg, Ibuprofen 50 mg/kg, Prednisolone 0.5 mg/kg
Experimental: (5) Effect on rat adjuvant polyarthritis
A group of eight to ten male Sprague Dawley strain rats (body weight 240-280 g) were used. 0.1 ml of Complete Freuind's adjuvant (CFA, Mycobacterium butyricum, 100 mg/10 cc) was injected intradermally to the right hind sole.

Structure (SMILES): CC(C)CCC[C@H]1CC[C@@](C)(C(=O)NCCCC(=O)O)CC1 [compound 13]
- inhibition in vivo at 100 mg/kg [1]: 40%

Structure (SMILES): CC(C)CCC[C@H]1CC[C@@](C)(C(=O)NCC(=O)O)CC1 [Compound No. 2, N-(cis-4-isohexyl-1-methylcyclohexanecarbonyl)-glycine]
- Inhibition ([2]; 100 mg/kg): 46%
- inhibition (released histamine) [3]: 73.0%
- LD50 at 504 h ([4]; female rat): ~10300 mg/kg
- LD50 at 504 h ([4]; male rat): ~11000 mg/kg
- inhibition in vivo at 100 mg/kg [1]: 41%

Structure (SMILES): CC1(C)[C@@H](O[C@H]2O[C@H](C(=O)O)[C@@H](O)[C@H](O)[C@H]2O[C@@H]2O[C@H](C(=O)O)[C@@H](O)[C@H](O)[C@H]2O)CC[C@]2(C)[C@H]3C(=O)C=C4[C@@H]5C[C@@](C)(C(=O)O)CC[C@]5(C)CC[C@@]4(C)[C@]3(C)CC[C@@H]12 [Glycyrrhizin, reference compound]
- Inhibition ([2]; 100 mg/kg): 22%
- inhibition (released histamine) [3]: 8.0%

Structure (SMILES): CC(C)CCC[C@H]1CC[C@@](C)(C(=O)N[C@@H](CCC(=O)O)C(=O)O)CC1 [Compound No. 15 (monosodium salt)]
- Separated volume of aqueous layer [5]: 9.3 mL
- Surface tension γ [6]: 42.3 dyn/cm

Structure (SMILES): CC(C)CCC[C@H]1CC[C@@](C)(C(=O)N[C@@H](CS)C(=O)O)CC1 [compound 18]
- inhibition in vivo at 100 mg/kg [1]: 27%

Structure (SMILES): CCC(NC(=O)[C@]1(C)CC[C@H](CCCC(C)C)CC1)C(=O)O (stereo partly drawn) [Compound No. 12 (potassium salt)]
- Separated volume of aqueous layer [5]: 7.3 mL
- Surface tension γ [6]: 44.5 dyn/cm

Structure (SMILES): CC(C)Cc1ccc(C(C)C(=O)O)cc1 (stereo not drawn) [Ibuprofen]
- Swelling percent of left hind paw (non-treatment of CFA) ([7]; day 0): -1.7±1.3%
- Swelling percent of right hind paw (treatment of CFA) ([7]; day 0): 118.6± 5.7%
- Swelling percent of left hind paw (non-treatment of CFA) ([7]; day 1): -2.4±1.0%
- Swelling percent of right hind paw (treatment of CFA) ([7]; day 1): 98.1± 6.1%
- Swelling percent of left hind paw (non-treatment of CFA) ([7]; day 4): -2.3±1.5%
- Swelling percent of right hind paw (treatment of CFA) ([7]; day 4): 204.7±11.6%
- Swelling percent of left hind paw (non-treatment of CFA) ([7]; day 7): 1.5±1.8%
- Swelling percent of right hind paw (treatment of CFA) ([7]; day 7): 181.7±14.8%
- Swelling percent of left hind paw (non-treatment of CFA) ([7]; day 10): 7.4±1.8%
- Swelling percent of left hind paw (non-treatment of CFA) ([7]; day 14): 12.5±1.5%
- Swelling percent of left hind paw (non-treatment of CFA) ([7]; day 17): 8.5±1.5%
- Swelling percent of left hind paw (non-treatment of CFA) ([7]; day 21): 8.5±2.0%
- Swelling percent of right hind paw (treatment of CFA) ([7]; day 21): 138.5±12.6%

Structure (SMILES): CC(C)CCC[C@H]1CC[C@@](C)(C(=O)NCCC(=O)O)CC1 [compound 6, N-(cis-4-isohexyl-1-methylcyclohexanecarbonyl)-β-alanine]
- inhibition in vivo at 100 mg/kg [1]: 10%

Structure (SMILES): CCCCC(NC(=O)[C@]1(C)CC[C@H](CCCC(C)C)CC1)C(=O)O (stereo partly drawn) [compound 11]
- inhibition in vivo at 100 mg/kg [1]: 37%

Structure (SMILES): C[C@]12C=CC(=O)C=C1CC[C@@H]1[C@@H]2[C@@H](O)C[C@@]2(C)[C@H]1CC[C@]2(O)C(=O)CO [Prednisolone]
- Inhibition ([2]; 5 mg/kg): 42%
- Swelling percent of left hind paw (non-treatment of CFA) ([7]; day 0): -1.1±1.0%
- Swelling percent of right hind paw (treatment of CFA) ([7]; day 0): 118.4± 6.0%
- Swelling percent of left hind paw (non-treatment of CFA) ([7]; day 1): -1.0±1.0%
- Swelling percent of right hind paw (treatment of CFA) ([7]; day 1): 97.3± 6.5%
- Swelling percent of left hind paw (non-treatment of CFA) ([7]; day 4): -1.7±1.1%
- Swelling percent of right hind paw (treatment of CFA) ([7]; day 4): 232.7±17.8%
- Swelling percent of left hind paw (non-treatment of CFA) ([7]; day 7): 5.7±1.9%
- Swelling percent of right hind paw (treatment of CFA) ([7]; day 7): 200.3±22.5%
- Swelling percent of left hind paw (non-treatment of CFA) ([7]; day 10): 4.5±2.9%
- Swelling percent of right hind paw (treatment of CFA) ([7]; day 10): 167.2±19.0%
- Swelling percent of left hind paw (non-treatment of CFA) ([7]; day 14): 12.5±2.4%
- Swelling percent of right hind paw (treatment of CFA) ([7]; day 14): 175.0±18.6%
- Swelling percent of left hind paw (non-treatment of CFA) ([7]; day 17): 9.8±1.4%
- Swelling percent of right hind paw (treatment of CFA) ([7]; day 17): 174.2±18.6%
- Swelling percent of left hind paw (non-treatment of CFA) ([7]; day 21): 7.1±1.5%
- Swelling percent of right hind paw (treatment of CFA) ([7]; day 21): 173.0±23.7%
- inhibition (released histamine) [3]: 4.0%
- inhibition in vivo at 5 mg/kg ([1]; 24 h, read-out: Inhibition): 32%

Structure (SMILES): CCC(NC(=O)[C@]1(C)CC[C@H](CCCC(C)C)CC1)C(=O)O (stereo partly drawn) [Compound No. 12]
- inhibition in vivo at 100 mg/kg [1]: 27%

Structure (SMILES): CC(C)CCC[C@H]1CC[C@@](C)(C(=O)N[C@H](C(=O)O)C(C)C)CC1 [compound 10]
- inhibition in vivo at 100 mg/kg [1]: 9%

Structure (SMILES): CC[C@H](C)[C@H](NC(=O)[C@]1(C)CC[C@H](CCCC(C)C)CC1)C(=O)O [compound 8]
- inhibition in vivo at 100 mg/kg [1]: 41%

Structure (SMILES): CC(C)CCC[C@H]1CC[C@](C)(C(=O)O)CC1 [compound 20, trans-4-isohexyl-1-methylcyclohexanecarboxylic acid]
- inhibition in vivo at 100 mg/kg [1]: 44%

Structure (SMILES): CC(C)CCC[C@H]1CC[C@](C)(C(=O)NCC(=O)O)CC1 [compound 21, N-(trans-4-isohexyl-1-methylcyclohexanecarbonyl)-glycine]
- inhibition in vivo at 100 mg/kg [1]: 53%

Structure (SMILES): CSCC[C@H](NC(=O)[C@]1(C)CC[C@H](CCCC(C)C)CC1)C(=O)O [Compound No. 17 (triethanolamine salt)]
- Separated volume of aqueous layer [5]: 9.5 mL
- Surface tension γ [6]: 42.3 dyn/cm

Structure (SMILES): CC(C)CCC[C@H]1CC[C@@](C)(C(=O)N[C@@H](CCC(N)=O)C(=O)O)CC1 [compound 14]
- inhibition in vivo at 100 mg/kg [1]: 7%

Structure (SMILES): CC(C)CCC[C@H]1CC[C@@](C)(C(=O)NCC(=O)O)CC1 [Compound No. 2 (potassium salt)]
- Separated volume of aqueous layer [5]: 9.5 mL
- Surface tension γ [6]: 39.5 dyn/cm

Structure (SMILES): CCCC(NC(=O)[C@]1(C)CC[C@H](CCCC(C)C)CC1)C(=O)O (stereo partly drawn) [compound 9]
- inhibition in vivo at 100 mg/kg [1]: 47%

Structure (SMILES): CC(C)CCC[C@H]1CC[C@@](C)(C(=O)NCCCCCC(=O)O)CC1 [compound 3, N-(cis-4-isohexyl-1-methylcyclohexanecarbonyl)-ε-aminocaproic acid]
- inhibition in vivo at 100 mg/kg [1]: 45%

Structure (SMILES): CC(C)CCC[C@H]1CC[C@H](C(=O)NCCCCCC(=O)O)CC1 [Compound No. 42 (sodium salt)]
- Separated volume of aqueous layer [5]: 9.5 mL
- Surface tension γ [6]: 38.8 dyn/cm

Structure (SMILES): CSCC[C@H](NC(=O)[C@]1(C)CC[C@H](CCCC(C)C)CC1)C(=O)O [Compound No. 17]
- inhibition in vivo at 100 mg/kg [1]: 50%

Structure (SMILES): CC(C)CCC[C@H]1CC[C@@](C)(C(=O)N[C@@H](C)C(=O)O)CC1 [compound 5]
- inhibition in vivo at 100 mg/kg [1]: 32%
